Structures can show the parent of a compound that is named as a salt. Where two headings read alike, the source gives them in different places. Marks after values point to notes of the source that are not given here. Where a SMILES comes first, the peptide text is derived from it. [ ]: non-standard residue; d: D form. The star is where a group is joined. X4 = [N-]=[N+]=N[C@@H](CCCCCN)C(=O)*; X2 = C[C@@H](CCC[N+](C)(C)C)C(=O)*; Tle = CC(C)(C)[C@H](N)C(=O)O; X1 = C[C@@H](CCCCCN)C(=O)*
Experiments:
NTR-1 = NTR-1 (Homo sapiens, UniProt P30989); assay: Competitive NTR-1 binding versus radiolabeled NT[8-13]
NTR-2 [1] = biological target: NTR-2 (Homo sapiens, UniProt O95665); assay: Competitive NTR-2 binding versus radiolabeled NT[8-13]
NTR-2 [2] = biological target: NTR-2 (Rattus norvegicus, UniProt Q63384); settings: for Tmax (I.P.) of %MPE / MPE (I.P.): IP at 10 mg/kg; for MPE (I.P.): hotplate 52 C, cutoff 30 sec; for asterisk at peptide name: significant activity in the hotplate assay: Table 13; for MPE (oral) / Tmax (Oral) of %MPE: orally at 20 mg/kg
Procedure: Animals. […] (230-260 g) or Harlan, Prattville Ala.
The Hotplate Assay. The hotplate assay, a standard rat model for […] pain (see Le Bars et al., Pharmacol. Rev. 53: 597-652 (2001) and Chapman et al., Pain 22:1-31 (2002)), was performed as follows. A hotplate maintained at 52° C. to 53° C. was enclosed on four sides in a plexiglass chamber that extended 6 in. above the plate. Animals were placed on the plate, and the latency between the time a rat was placed on the surface and when it lifts or licks a back paw (indicative of pain sensation) was determined. Animals are removed immediately at the cutoff latency of 30 seconds. Assays are scored as the percent of maximal possible effect (% MPE) defined as 100%, which corresponds to the rats remaining on the hotplate for 30 seconds without responding. Thus, % MPE are calculated using the following equation: % MPE=[(post-drug latency-pre-drug latency)/(cut-off pre-drug latency)]×100%. N=6 or greater for all experiments.
Values for each set of experiments will be submitted to analysis of variance, with dose (vehicle and 5 levels) as the factor. […] An effect will be considered significant if p<0.05.
Tmax indicates the time after dosing in which a maximum response was observed.
Initial screens of all peptides included (1) evaluating their analgesic ability when dosed IP or orally (indicative of NTR-2 agonism) and (2) evaluating their ability to induce hypothermia when IP, a secondary effect of NTR-1 agonist activity.

Formalin assay = settings: morphine 5 mg/kg, approximately equimolar
Tail flick assay = settings: ABS212 10 mg/kg, Morphine 5 mg/kg
[3] = d-Amphetamine induced hyperlocomotion and spontaneous locomotor activity; assay type: in vivo, rat; settings: Table 11
Text: This model operates on the assumption that the direct stimulation of DA receptors within the mesolimbic DA system is responsible for the locomotor response.
Sound- and light-attenuated locomotor cages are used to measure the ability of potential candidates to decrease d-amphetamine-induced hyperactivity.
d-Amphetamine induced hyperlocomotion. Experimentally I male Sprague-Dawley rats were housed as described above. Rats were handled for three days prior to testing to minimize experimenter induced hyperlocomotion on test day. For experiments, sound- and light-attenuated automated photocell beam activity chambers (AccuScan Instruments, Inc., Columbus, Ohio) were used to measure locomotion. Cages were connected to a VersaMax Analyzer (AccuScan) in conjunction with an IBM computer using VersaMax 1.80-0146 software (AccuScan) to record vertical and horizontal activity. Total activity values recorded were the sum of vertical and horizontal activity.
Each animal's activity was measured by how many times per minute the animal “trips” a photobeam in a computer-controlled photocell activity chamber (San Diego Instruments, San Diego, Calif.). […] Doses were assigned so that each was assessed in 12 chambers that were distributed over the apparatus, which controls for variations in lighting, etc. of the different chambers. […]

[4] = rat, in vivo
Procedure: Cataleptic Analysis. In laboratory tests, catalepsy is characterized by the inability of an animal to correct its position after placement in an unnatural posture. […] To circumvent these potential confounding factors, tests are performed on an animal only once in a quiet, controlled environment.
Catalepsy Assessment. […] Rats were given an IP injection of peptide (5 mg/Kg), saline, or haloperidol (1 mg/kg). After 3 hours, catalepsy was measured using the horizontal bar test. Briefly, the front paws were placed directly on a horizontal bar 5 mm in diameter placed 7.5 cm above the cage floor. The rat was held in this position for 3 sec and then released. The time from release until the paws return to the cage floor was measured and recorded. A cut-off time of 30 sec was observed; this indicated a fully cataleptic animal as cataleptic animals are frozen to the bar. […] Measures were repeated every 30 min for 4 hr. Data are means±SEM (p<0.01).
After 2 h, catalepsy was measured using the horizontal bar test. Data are means±SEM (p<0.01).

in vitro = settings: plasma
[5] = Pharmacokinetics of ABS212 in Sprague-Dawley rats; assay type: in vivo, rat; settings: for Vd: read-out: volume of distribution at terminal phase; for half-life: read-out: half-life (T1/2) (converted); for clearance: read-out: systemic clearance (converted)
Text: These samples were used for the determination of plasma parent drug concentrations by LC/MS/MS for estimating pharmacokinetic parameters and oral bioavailability.

[6] = Acute toxicity, clinical observation and maximum tolerated dose in rats; assay type: in vivo, rat
Procedure: During the 2 and 24 hour post-dosing clinical observation periods, measurements of core body temperatures were taken.

[7] = Sprague-Dawley, rat, plasma, IV bolus 1 mg/kg
[8] = Sprague-Dawley, rat, plasma, IV bolus 2.5 mg/kg
[9] = Sprague-Dawley, rat, plasma, IV bolus 5 mg/kg
[10] = Sprague-Dawley, rat, plasma, oral 50 mg/kg

Sequence of NTR-2 (Homo sapiens, UniProt O95665) (O95665 whole entry, species assumed): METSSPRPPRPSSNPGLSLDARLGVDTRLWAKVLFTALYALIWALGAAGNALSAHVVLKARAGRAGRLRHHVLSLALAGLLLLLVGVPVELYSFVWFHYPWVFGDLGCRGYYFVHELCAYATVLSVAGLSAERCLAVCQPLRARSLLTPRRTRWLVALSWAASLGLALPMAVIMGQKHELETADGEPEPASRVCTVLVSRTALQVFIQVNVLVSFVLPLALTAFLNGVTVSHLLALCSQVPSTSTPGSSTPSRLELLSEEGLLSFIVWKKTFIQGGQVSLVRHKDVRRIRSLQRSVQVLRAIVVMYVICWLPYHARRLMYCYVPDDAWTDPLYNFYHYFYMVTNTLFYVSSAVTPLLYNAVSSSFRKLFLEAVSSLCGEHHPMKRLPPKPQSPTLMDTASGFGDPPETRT
Sequence of NTR-2 (Rattus norvegicus, UniProt Q63384) (Q63384 whole entry): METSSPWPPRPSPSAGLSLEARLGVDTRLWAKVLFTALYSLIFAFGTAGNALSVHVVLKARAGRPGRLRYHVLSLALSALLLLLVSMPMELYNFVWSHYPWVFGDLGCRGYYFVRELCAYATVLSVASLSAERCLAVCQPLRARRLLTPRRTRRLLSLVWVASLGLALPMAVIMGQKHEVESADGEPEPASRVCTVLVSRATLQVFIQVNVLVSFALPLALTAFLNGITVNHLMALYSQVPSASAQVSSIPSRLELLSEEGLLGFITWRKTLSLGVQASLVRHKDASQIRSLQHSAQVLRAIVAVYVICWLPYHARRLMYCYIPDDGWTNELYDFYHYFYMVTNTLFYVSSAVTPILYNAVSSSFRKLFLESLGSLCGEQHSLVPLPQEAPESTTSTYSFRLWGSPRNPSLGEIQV
Sequence of NTR-1 (P30989 whole entry, species assumed): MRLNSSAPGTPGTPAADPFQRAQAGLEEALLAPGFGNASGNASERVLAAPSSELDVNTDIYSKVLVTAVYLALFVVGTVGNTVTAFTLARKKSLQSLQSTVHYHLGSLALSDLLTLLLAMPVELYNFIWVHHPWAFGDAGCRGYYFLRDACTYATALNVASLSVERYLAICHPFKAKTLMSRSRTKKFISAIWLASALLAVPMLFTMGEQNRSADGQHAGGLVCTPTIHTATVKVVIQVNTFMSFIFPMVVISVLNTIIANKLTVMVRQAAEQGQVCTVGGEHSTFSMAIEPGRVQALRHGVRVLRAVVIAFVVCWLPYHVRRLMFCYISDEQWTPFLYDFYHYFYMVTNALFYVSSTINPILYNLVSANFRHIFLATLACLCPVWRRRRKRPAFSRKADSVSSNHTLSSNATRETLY

Q: For `CC(C)C[C@H](NC(=O)[C@@H](NC(=O)[C@H](Cc1ccc(O)cc1)NC(=O)[C@@H]1CCCN1C(=O)[C@H](CCCNC(=N)N)NC(=O)[C@H](CCCCCN)N=[N+]=[N-])C(C)(C)C)C(=O)O` [ABS13, N3-L-homolysine-Arg-Pro-Tyr-tertLeu-Leu-COOH] (X4-RPY[Tle]L-OH), which EC50 (NTR-1) is on record?
A: 5.7 ± 0.37 nM

Q: And the EC50 (NTR-2 [1])?
A: 11.1 ± 0.1 nM

Q: For Orn-Arg-Pro-Tyr-t-Leu-Leu [ABS209], which “Tmax (I.P.) of %MPE” value (NTR-2 [2]; 10 mg/kg) is on record?
A: 60

Q: What about the “MPE (I.P.)” value (NTR-2 [2]; 10 mg/kg) of the same compound?
A: 89%

Q: Which results are given for Orn-Arg-Pro-Tyr-t-Leu-Leu [ABS233]?
A: Tmax (I.P.) of %MPE (NTR-2 [2]; 10 mg/kg): 45; MPE (I.P.) (NTR-2 [2]; 10 mg/kg): 51%

Q: Which EC50 (NTR-1) does the source give for `CC[C@H](C)[C@H](NC(=O)[C@H](Cc1ccc(O)cc1)NC(=O)[C@@H]1CCCN1C(=O)[C@H](CCCNC(=N)N)NC(=O)[C@H](CCCNC(=N)NC)N=[N+]=[N-])C(=O)N[C@@H](CC(C)C)C(=O)O` [ABS16, X-Arg-Pro-Tyr-isoleu-Leu] here?
A: 0.3 ± 0.05 nM

Q: Which results are given for Arg-Arg-Pro-Tyr-t-Leu-Leu [ABS237]?
A: Tmax (I.P.) of %MPE (NTR-2 [2]): 30; MPE (I.P.) (NTR-2 [2]; 10 mg/kg): 50%

Q: Which “Tmax (I.P.) of %MPE” value (NTR-2 [2]) does the source give for Boc-Arg-Pro-Tyr-t-Leu-Leu [ABS700] here?
A: 90

Q: And the “MPE (I.P.)” value (NTR-2 [2])?
A: 51%

Q: Which “duration of activity of morphine” value (Formalin assay) does the source give for `CN1CC[C@]23c4c5ccc(O)c4O[C@H]2[C@@H](O)C=C[C@H]3[C@H]1C5` [Morphine, reference compound] here?
A: loses activity after 30 minutes

Q: What about the “MPE (0 min)” value (Tail flick assay) of the same compound?
A: 0.03 +/− 0.05

Q: And the “MPE (30 min)” value (Tail flick assay)?
A: 63.7 +/− 41.9

Q: What about the “MPE (60 min)” value (Tail flick assay) of the same compound?
A: 67.5 +/− 25.8

Q: For `CC[C@H](C)[C@H](NC(=O)[C@H](Cc1ccc(O)cc1)NC(=O)[C@@H]1CCCN1C(=O)[C@H](CCCNC(=N)N)NC(=O)[C@@H](N)CCCNC(=N)N)C(=O)N[C@@H](CC(C)C)C(=O)O` [NT(8-13), NH2-Arg-Arg-Pro-Tyr-Ile-Leu-COOH], which “Hyperlocomotion Inhibition (active routes)” value [3] is on record?
A: CNS administration

Q: What about the “Inhibits locomotor activity (active routes)” value [3] of the same compound?
A: CNS administration

Q: What about the Catalepsy [4] of the same compound?
A: No

Q: And the half-life (in vitro)?
A: 5 min

Q: For X-Arg-Pro-Tyr-isoleu-Leu [ABS19], which EC50 (NTR-1; competitive binding, Table 12, read-out: NTR-1) is on record?
A: 1.2 ± 0.7 nM

Q: What does the source list for 1-Arg-Pro-Tyr-t-Leu-Leu [ABS202]?
A: Tmax (I.P.) of %MPE (NTR-2 [2]; 10 mg/kg): 30-75; asterisk at peptide name: significant activity in the hotplate assay (NTR-2 [2]): ABS202*; MPE (I.P.) (NTR-2 [2]; 10 mg/kg): 100%; % MPE (NTR-2 [2]; hotplate 52° C., cutoff 30 seconds, Table 10): 100%; % MPE (tmax, min) (NTR-2 [2]; hotplate, Table 10): 45 min; MPE (oral) (NTR-2 [2]; hotplate, 20 mg/kg): 52%; Tmax (Oral) of %MPE (NTR-2 [2]; 20 mg/kg): 45

Q: What does the source list for `CC[C@H](C)[C@H](NC(=O)[C@H](Cc1ccc(O)cc1)NC(=O)[C@@H]1CCCN1C(=O)[C@H](CCCNC(=N)N)NC(=O)[C@H](CCCNC(=N)N)N=[N+]=[N-])C(=O)N[C@@H](CC(C)C)C(=O)O` [ABS15, X-Arg-Pro-Tyr-isoleu-Leu]?
A: EC50 (NTR-1): 0.4 ± 0.1 nM; EC50 (NTR-2 [1]): 0.9 ± 0.2 nM; NTR-1/NTR-2 selectivity (NTR-2 [1]; Table 12): 2.5

Q: Which “clearance as % of rat hepatic blood flow (3.31 L/hr/kg)” value (“clearance as %” below) ([5]; IV bolus 1 mg/kg) does the source give for `CC(C)C[C@H](NC(=O)[C@@H](NC(=O)[C@H](Cc1ccc(O)cc1)NC(=O)[C@@H]1CCCN1C(=O)[C@H](CCCNC(=N)N)NC(=O)[C@@H](C)CCC[N+](C)(C)C)C(C)(C)C)C(=O)O` [ABS-212.2HCL] (X2-RPY[Tle]L-OH) here?
A: 32.33%

Q: What about the “clearance as %” value ([5]; IV bolus 5 mg/kg) of the same compound?
A: 12.08%

Q: What about the “clearance as %” value ([5]; IV bolus […]) of the same compound?
A: 12.08%

Q: What about the Vd ([5]; Sprague-Dawley, rat, plasma, IV 1 mg/kg) of the same compound?
A: 0.43 ± 0.15 L/kg

Q: What about the Vd ([5]; Sprague-Dawley, rat, plasma, IV 2.5 mg/kg) of the same compound?
A: 0.15 ± 0.01 L/kg

Q: And the Vd ([5]; Sprague-Dawley, rat, plasma, IV 5 mg/kg)?
A: 0.16 ± 0.06 L/kg

Q: What about the half-life [5, 7] of the same compound?
A: 16.8 ± 4.8 min

Q: And the clearance [5, 7]?
A: 17.8 mL/min/kg

Q: And the half-life [5, 8]?
A: 16.8 ± 6.6 min

Q: What about the clearance [5, 8] of the same compound?
A: 6.67 mL/min/kg

Q: And the half-life [5, 9]?
A: 17.4 ± 7.8 min

Q: And the clearance [5, 9]?
A: 6.67 mL/min/kg

Q: What about the AUC(0-inf) [5, 10] of the same compound?
A: 53.1 ± 39.6 ng·h/mL

Q: What about the Cmax [5, 10] of the same compound?
A: 27.1 ± 11.6 ng/mL

Q: What about the Tmax [5, 10] of the same compound?
A: 8.4 ± 3 min

Q: And the bioavailability ([5]; Sprague-Dawley, rat, plasma, oral 50 mg/kg, 1 mg/kg group as IV dose data)?
A: 0.11 ± 0.08%

Q: What about the half-life [5, 10] of the same compound?
A: 85.2 ± 52.2 min

Q: Which “Tmax (I.P.) of %MPE” value (NTR-2 [2]; 10 mg/kg) does the source give for Lys-Arg-Pro-Tyr-t-Leu-Leu [ABS229] here?
A: 60

Q: And the “MPE (I.P.)” value (NTR-2 [2]; 10 mg/kg)?
A: 48%

Q: With Arg-Arg-Pro-Tyr-t-Leu-Leu [ABS213] as the compound, how does the “Tmax (I.P.) of %MPE” value (NTR-2 [2]) read?
A: 30

Q: What about the “MPE (I.P.)” value (NTR-2 [2]; 10 mg/kg) of the same compound?
A: 48%

Q: For `CCNC(=N)NCCC[C@H](N=[N+]=[N-])C(=O)N[C@@H](CCCNC(=N)N)C(=O)N1CCC[C@H]1C(=O)N[C@@H](Cc1ccc(O)cc1)C(=O)N[C@H](C(=O)N[C@@H](CC(C)C)C(=O)O)[C@@H](C)CC` [ABS17, X-Arg-Pro-Tyr-isoleu-Leu], which EC50 (NTR-1) is on record?
A: 0.25 ± 0.07 nM

Q: Which “Tmax (I.P.) of %MPE” value (NTR-2 [2]) does the source give for hLys-Arg-Pro-Tyr-t-Leu-Leu [ABS225] here?
A: 15-45

Q: What about the “asterisk at peptide name: significant activity in the hotplate assay” value (NTR-2 [2]) of the same compound?
A: ABS225*

Q: What about the “MPE (I.P.)” value (NTR-2 [2]) of the same compound?
A: 100%

Q: What about the “MPE (oral)” value (NTR-2 [2]; hotplate) of the same compound?
A: 38%

Q: What about the “Tmax (Oral) of %MPE” value (NTR-2 [2]) of the same compound?
A: 30

Q: With Lys-Arg-Pro-Tyr-t-Leu-Leu [ABS205] as the compound, how does the “Tmax (I.P.) of %MPE” value (NTR-2 [2]; 10 mg/kg) read?
A: 15-30

Q: What about the “asterisk at peptide name: significant activity in the hotplate assay” value (NTR-2 [2]) of the same compound?
A: ABS205*

Q: And the “MPE (I.P.)” value (NTR-2 [2]; 10 mg/kg)?
A: 86%

Q: What about the “MPE (oral)” value (NTR-2 [2]; hotplate) of the same compound?
A: 66%

Q: And the “Tmax (Oral) of %MPE” value (NTR-2 [2])?
A: 30

Q: With `CC(C)C[C@H](NC(=O)[C@@H](NC(=O)[C@H](Cc1ccc(O)cc1)NC(=O)[C@@H]1CCCN1C(=O)[C@H](CCCNC(=N)N)NC(=O)[C@@H](C)CCCCCN)C(C)(C)C)C(=O)O` [ABS201 HCl] (X1-RPY[Tle]L-OH) as the compound, how does the “clinical observation 2 hour post-dosing” value ([6]; 50 mg/kg IV) read?
A: all animals appeared grossly normal although marked hypothermia was present

Q: What about the “clinical observation 24 hour post-dosing” value ([6]; 50 mg/kg IV) of the same compound?
A: all animals appeared grossly normal; hypothermia was absent

Q: What about the “acute behaviour during intravenous dosing” value ([6]; 50 mg/kg IV, slow push via tail vein) of the same compound?
A: noticeably sedate

Q: What about the “clinical observation after oral dosing” value ([6]; 250 mg/kg PO) of the same compound?
A: appeared grossly normal at all time points

Source: patent US20080234202A1, “Non-natural amino acids and neurotensin analogues” (priority 2004, published 2008)
